One molecule from publication PMC8157947, “Peptidic boronic acids are potent cell-permeable inhibitors of the malaria parasite egress serine protease SUB1” (Proceedings of the National Academy of Sciences of the …, 2021) can be followed below.

Values joined by “and” are separate entries in the source; they are usually repeats but may differ in a detail not shown here. Equal values may be shown once. Some results are limits rather than exact numbers.

One data set concerns the target T1, trypsin (Bos taurus, UniProt P00760).
T1 construct: purchased Sigma-Aldrich T1426; host or cells: bovine pancreas
T1 sequence (P00760 24-246): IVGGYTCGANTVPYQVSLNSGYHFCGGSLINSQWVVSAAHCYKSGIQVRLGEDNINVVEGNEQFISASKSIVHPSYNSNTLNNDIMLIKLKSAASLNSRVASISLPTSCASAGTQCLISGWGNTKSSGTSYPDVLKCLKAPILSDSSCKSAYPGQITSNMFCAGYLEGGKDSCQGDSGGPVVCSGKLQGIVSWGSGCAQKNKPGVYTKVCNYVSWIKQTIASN
Briefly: Trypsin inhibition assay (Boc-QAR-AMC cleavage). The data set is classed as biochemical, bovine. Here is the method:
Analytical data are in accor dance with those reported in the literature12.
(+)-Pinanediol (1- am inobenzyl)boronate h ydrochloride 9g
A previousl y reported m ethod was used for the first step of the s ynthesis3.
Phenylm agnesium brom ide 0.7 M (3.1 m L, 2.15 mm ol, 1.2 equiv) was added dropwise at −78°C to a solution of (+)-pinanediol dichloromethyl boronate 24 (470 m g, 1.79 mmol, 1.0 equiv) in anh ydrous dieth yl ether (10 m L). Af ter 15 m in ZnCl2 1 M (1.8 m L, 1.8 mm ol, 1.0 equiv) was slowl y added at this t em perature. T he reaction m ixture was allowed to warm up to room tem perature over 2 hours. The inorganic precipitate was filtered off and the solvents were rem oved in vacuo. The residue was dissolved in pentane, washed with water and dried over Na2SO4. Rem oval of the solvent gives a product which was forwarded to the next step without purification. […]
Assays f or inh ib ition of tr yp s in activity (T PC K trea ted, f rom bovine pa ncreas; Sigm a-Aldrich T 1426) were based on cleavage of the fluorogenic peptide substrate Boc -QAR-AMC (Sigma- Aldrich B4153). which contains the fluorescent 7- am ino-4-m ethyl c oum arin (AMC) group. […] Cleavage of this bond results in release of AMC and i ncreased fluorescence. […]

The target in another data set is rPfSUB1 (Plasmodium falciparum, UniProt Q8I0V0). Nature of the data set: Progress curve kinetic analysis of rPfSUB1 inhibition. The text has this: Boronic acids form reversible covalent bonds with serine and threonine proteases ([26]). Inhibition is generally time dependent, and the covalent nature of the binding can result in relatively long target occupancy times despite the reversibility of the bond. […] To analyze the kinetic characteristics of the interaction between 3j and rPfSUB1, we used progress curve analysis to continuously monitor rPfSUB1-mediated cleavage of a fluorogenic substrate in the presence of a range of concentrations of 3j. […] Under such conditions, fit of the progress curves by nonlinear regression to Eq. 1 (see Materials and Methods) allows determination of kobs, the pseudo first-order rate constant for onset of inhibition. The kobs is effectively a composite of the on and off rates, so least linear squares regression of the calculated kobs values against inhibitor concentration allows determination of values of the pseudo first-order dissociation rate constant koff and the second-order association rate constant kon for the inhibitor-rPfSUB1 interaction, based respectively on values from the y-intercept and slope.
Progress curves of SERA4st1F-6R12 cleavage by rPfSUB1 were acquired at seven concentrations of inhibitor compound 3j over a period of 35 min, during which fluorescence increases in the absence of inhibitor were linear. The obtained progress curves (four independent replicates) were fit using GraphPad Prism 8.0 software to the following time-dependent inhibition equation: [P] = Vs∗t + ((Vi−Vs)/kobs)∗(1−exp(−kobs∗t)).
In the equation, Vi is the initial velocity, Vs is the final steady-state velocity, and kobs reflects the observed pseudo first-order rate of inactivation. The obtained kobs values were plotted against compound concentration using a linear least squares fit. All statistical analysis was carried out using GraphPad Prism 8.

Sequence of rPfSUB1 (Q8I0V0 218-688): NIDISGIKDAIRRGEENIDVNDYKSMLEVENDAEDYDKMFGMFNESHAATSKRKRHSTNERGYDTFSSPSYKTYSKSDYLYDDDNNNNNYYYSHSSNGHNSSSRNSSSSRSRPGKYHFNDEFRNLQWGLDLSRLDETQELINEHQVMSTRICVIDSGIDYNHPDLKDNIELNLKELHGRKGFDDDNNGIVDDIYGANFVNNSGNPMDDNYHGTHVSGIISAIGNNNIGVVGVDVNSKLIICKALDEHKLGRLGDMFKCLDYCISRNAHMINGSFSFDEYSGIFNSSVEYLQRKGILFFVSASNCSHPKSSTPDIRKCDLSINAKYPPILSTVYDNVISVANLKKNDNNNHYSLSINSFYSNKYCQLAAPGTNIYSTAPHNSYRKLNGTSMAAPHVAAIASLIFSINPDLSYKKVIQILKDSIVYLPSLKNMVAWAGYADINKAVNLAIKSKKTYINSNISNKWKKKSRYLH

As a reminder, the IC50 is the point on the concentration scale where inhibition reaches its midpoint. Lower therefore signals greater potency. By Ki is commonly meant the dissociation constant of the complex between target and ligand, obtained from inhibition or displacement. The term koff denotes the rate constant with which the complex falls apart. The kon is the second-order rate constant of association. As to `CC(=O)NC(C(=O)NC(C(=O)NCC(=O)NC(C)B(O)O)C(C)C)C1CCCC1` (stereo not drawn) [3j], on trypsin (10 µM), the “effect on trypsin activity” value is “no detectable effect”. At trypsin (bovine trypsin, Boc-QAR-AMC), this molecule returned a 50% inhibitory concentration (IC50) of over 10000 nM. On rPfSUB1, this molecule registered an inhibition constant (Ki) of 1 nM. Besides, the “t1/2^off (bound half-life)” value at rPfSUB1 (from koff) was ~31 min and ~30 min. Besides, the off-rate (koff) on rPfSUB1 (read-out: koff, dissociation rate constant) is 0.00037 s⁻¹. Moreover, on rPfSUB1 (read-out: kon, second-order association rate constant), the kon was 360000 M⁻¹ s⁻¹.
